Tests used:
[1] = target: Dual specificity protein kinase TTK (Homo sapiens) (UniProt P33981); assay: Inhibition of Mps1-mediated p38 MAPK phosphorylation after 90 mins by DELFIA assay
[2] = target: Dual specificity protein kinase TTK (Homo sapiens) (UniProt P33981); assay: Inhibition of FLAG-tagged Mps1 autophosphorylation in human RERF-LC-AI cells expressing Tet-suppressible promotor after 3 hrs by immunoblotting

IC50 [1] [nM] | IC50 [2] [nM] | Compound
3970 | – | CCOc1nc(NCCc2ccccc2)cc(N)c1C#N
568 | – | CCOc1nc(C(=O)NCc2ccc(S(C)(=O)=O)cc2)cc(N)c1C#N [4-amino-5-cyano-6-ethoxy-N-[(4-methanesulfonylphenyl)methyl]pyridine-2-carboxamide]
4200 | – | CCOc1nc(NC(=O)Cc2ccccc2)cc(N)c1C#N [N-(4-Amino-5-cyano-6-ethoxypyridin-2-yl)-2-phenylacetamide]
37 | 1800 | CCOc1nc(Nc2ccc(C(N)=O)cc2)cc(N)c1C#N
529 | – | CCOc1nc(C(=O)NCc2ccccc2)cc(N)c1C#N [4-Amino-5-cyano-6-ethoxy-pyridine-2-carboxylic acid benzylamide]
228 | – | CCOc1nc(Nc2ccccc2)cc(N)c1C#N

Reference: BindingDB's records for doi:10.1021/ml3000879 (2012)
